The record followed here is ChEMBL document CHEMBL5036374, “2-Oxooxazolidine-5-carboxamides as Nav1.8 Inhibitors for Treating Pain Disorders, Cough Disorders, and Acute and Chronic Itch Disorders” (ACS Med Chem Lett, 2022).

A short description of the assay: Inhibition of human Nav1.8 expressed in HEK293 cells assessed as sodium current flow at holding potential of -90mV by Whole cell-automated patch clamp assay. It counts as cell-based.

One may read the IC50 as the point on the concentration scale where inhibition reaches its midpoint.

With `O=C1NC[C@@H](C(=O)NC(c2ccc(F)c(Cl)c2)c2ccc(F)c(Cl)c2)O1`, the IC50 was found to be 0.7 nM.
In the case of `O=C1NC[C@@H](C(=O)NC(c2ccc(Cl)cc2)c2ccc(Cl)c(C(F)(F)F)c2)O1` (stereo partly specified), the half-maximal inhibitory concentration (IC50) was found to be 0.4 nM.
`Cc1cc(C(NC(=O)[C@@H]2CNC(=O)O2)c2ccc(Cl)cc2)ccc1Cl` (stereo partly specified): the IC50 worked out at 0.6 nM.
The same measure for `O=C1NC[C@@H](C(=O)NC(c2ccc(OC(F)(F)F)c(Cl)c2)c2cnn(C(F)(F)F)c2)O1` (stereo partly specified): 1.2 nM.
The figure for `O=C1NC[C@@H](C(=O)NC(c2ccc(Cl)cc2)c2ccc(F)c(Cl)c2)O1` (stereo partly specified) is 0.9 nM; for `O=C1NC[C@@H](C(=O)NC(c2ccc(Cl)cc2)c2ccc(Cl)c(C(F)(F)F)n2)O1` (stereo partly specified) it is 0.6 nM.
